Laboratory results reported in patent publication US11654169B2, “Methods for protecting skin and/or promoting wound healing” (SINPHAR PHARMACEUTICAL CO., LTD., priority 2016, dated 2023).

Columns and labels:
Assay type in all cases: cell-based
[1] = test system: normal primary human skin fibroblastic cells; experiment: Content of hyaluronic acid in cell medium of fibroblasts (Western blot and ELISA), relative to control; settings: 48 hours; for relative content of hyaluronic acid in the medium (extracellular content of hyaluronic acid): control group = 100%; for contents of hyaluronic acid as compared to the control group (in words) / contents of hyaluronic acid, ingredients singled out as stronger (in words): treated cells vs control group; for contents of hyaluronic acid, ingredients singled out as stronger (in words): compared with the other active ingredients
Method: (§1) The normal primary human skin fibroblastic cells (purchased from ATCC) were cultivated in a Fibroblast Growth Medium. The cells thus provided were used in the following experiments. […]
(§2) Thereafter, the cell medium of each group was collected and concentrated. Then, the intracellular content of collagen, the content of collagen in cell medium (i.e., extracellular content of collagen) and the content of hyaluronic acid in cell medium were measured and analyzed by Western blot and enzyme-linked immunosorbent assay (ELISA).
(§3) The normal primary human skin fibroblastic cells provided by [Preparation Example C] were divided into 37 groups and were respectively cultivated with the following medium for 48 hours: • 1. Group 1: a Fibroblast Growth Medium • 2. Group 2-1 to 2-3: Fibroblast Growth Media containing the pachymic acid (PA) provided by [Preparation Example B] at a concentration of 0.01, 0.1 and 1 μM, respectively; • 3. Group 3-1 to 3-3: Fibroblast Growth Media containing the dehydropachymic acid (DPA) provided by [Preparation Example B] at a concentration of 0.01, 0.1 and 1 μM, respectively; • 4. Group 4-1 to 4-3: Fibroblast Growth Media containing the tumulosic acid (TA) provided by [Preparation Example B] at a concentration of 0.01, 0.1 and 1 μM, respectively; • 5. Group 5-1 to 5-3: Fibroblast Growth Media containing the dehydrotumulosic acid (DTA) provided by [Preparation Example B] at a concentration of 0.01, 0.1 and 1 μM, respectively; • 6. Group 6-1 to 6-3: Fibroblast Growth Media containing the polyporenic acid C (PAC) provided by [Preparation Example B] at a concentration of 0.01, 0.1 and 1 μM, respectively; • 7. Group 7-1 to 7-3: Fibroblast Growth Media containing the 3-epi-dehydrotumulosic acid (EDTA) provided by [Preparation Example B] at a concentration of 0.01, 0.1 and 1 μM, respectively; • 8. Group 8-1 to 8-3: Fibroblast Growth Media containing the dehydrotrametenolic acid (DTTA) provided by [Preparation Example B] at a concentration of 0.01, 0.1 and 1 μM, respectively; • 9. Group 9-1 to 9-3: Fibroblast Growth Media containing the trametenolic acid (TTA) provided by [Preparation Example B] at a concentration of 0.01, 0.1 and 1 μM, respectively; • 10. Group 10-1 to 10-3: Fibroblast Growth Media containing the poricoic acid A (PAA) provided by [Preparation Example B] at a concentration of 0.01, 0.1 and 1 μM, respectively; • 11. Group 11-1 to 11-3: Fibroblast Growth Media containing the dehydroeburicoic acid (DEA) provided by [Preparation Example B] at a concentration of 0.01, 0.1 and 1 μM, respectively; • 12. Group 12-1 to 12-3: Fibroblast Growth Media containing the poricoic acid B (PAB) provided by [Preparation Example B] at a concentration of 0.01, 0.1 and 1 μM, respectively; • 13. Group 13-1 to 13-3: Fibroblast Growth Media containing the eburicoic acid (EA) provided by [Preparation Example B] at a concentration of 0.01, 0.1 and 1 μM, respectively.
The content of hyaluronic acid in the medium of each group (i.e., extracellular content of hyaluronic acid) was provided.

[2] = test system: normal primary human skin fibroblastic cells; experiment: Content of collagen in cell medium (extracellular collagen) of fibroblasts (Western blot and ELISA), relative to control; settings: 48 hours; for relative content of collagen in the medium (extracellular content of collagen): control group = 100%; for extracellular contents of collagen (collagen in cell medium) as compared to the control group (in words): treated cells vs control group
Method: The normal primary human skin fibroblastic cells (purchased from ATCC) were cultivated in a Fibroblast Growth Medium. The cells thus provided were used in the following experiments.
The normal primary human skin fibroblastic cells provided by [Preparation Example C] were divided into 4 groups and were respectively cultivated with the following medium for 48 hours: • 1. Group I: a Fibroblast Growth Medium; • 2.
as §2, §3
The content of collagen in the medium of each group (i.e., extracellular content of collagen) was provided.

[3] = test system: normal primary human skin fibroblastic cells; experiment: Intracellular content of collagen in fibroblasts (Western blot and ELISA), relative to control; settings: 48 hours; for relative intracellular content of collagen: control group = 100%; for intracellular contents of collagen as compared to the control group (in words): treated cells vs control group
Method: as §1, §3
Thereafter, the cell medium of each group was collected and concentrated. Then, the intracellular content of collagen was measured and analyzed by Western blot and enzyme-linked immunosorbent assay (ELISA).

| SMILES | relative content of hyaluronic acid in the medium (extracellular content of hyaluronic acid) ([1]; 0.01 μM) [%] | relative content of hyaluronic acid in the medium (extracellular content of hyaluronic acid) ([1]; 0.1 μM) [%] | relative content of hyaluronic acid in the medium (extracellular content of hyaluronic acid) ([1]; 1 μM) [%] | contents of hyaluronic acid as compared to the control group (in words) [1] | contents of hyaluronic acid, ingredients singled out as stronger (in words) [1] | relative content of collagen in the medium (extracellular content of collagen) ([2]; 0.01 μM) [%] | relative content of collagen in the medium (extracellular content of collagen) ([2]; 0.1 μM) [%] | relative content of collagen in the medium (extracellular content of collagen) ([2]; 1 μM) [%] | extracellular contents of collagen (collagen in cell medium) as compared to the control group (in words) [2] | relative intracellular content of collagen ([3]; 0.01 μM) [%] | relative intracellular content of collagen ([3]; 0.1 μM) [%] | relative intracellular content of collagen ([3]; 1 μM) [%] | intracellular contents of collagen as compared to the control group (in words) [3] |
| --- | --- | --- | --- | --- | --- | --- | --- | --- | --- | --- | --- | --- | --- |
| C=C(CC[C@@H](C(=O)O)[C@H]1[C@H](O)C[C@@]2(C)C3=CC[C@H]4C(C)(C)[C@H](O)CC[C@]4(C)C3=CC[C@]12C)C(C)C [3-epi-dehydrotumulosic acid (EDTA), 3-epi-dehydrotumulosic acid] | 105 | 122 | 140 | significantly enhanced | enhanced more significantly | 98 | 104 | 111 | significantly enhanced | 87 | 100 | 80 | – |
| C=C(CC[C@@H](C(=O)O)[C@H]1CC[C@@]2(C)C3=CC[C@H]4C(C)(C)[C@@H](O)CC[C@]4(C)C3=CC[C@]12C)C(C)C [Dehydroeburicoic acid (DEA), dehydroeburicoic acid] | 115 | 118 | 128 | significantly enhanced | – | 143 | 148 | 185 | significantly enhanced | 94 | 80 | 77 | – |
| C=C(CCC(C(=O)O)[C@H]1[C@H](O)C[C@@]2(C)C3=CC[C@H]4C(C)(C)[C@@H](OC(C)=O)CC[C@]4(C)C3=CC[C@]12C)C(C)C (some centres unmarked) [Dehydropachymic acid (DPA), dehydropachymic acid] | 111 | 131 | 152 | significantly enhanced | enhanced more significantly | 124 | 122 | 116 | significantly enhanced | 154 | 188 | 122 | significantly enhanced |
| CC(C)=CCC[C@@H](C(=O)O)[C@H]1CC[C@@]2(C)C3=CC[C@H]4C(C)(C)[C@@H](O)CC[C@]4(C)C3=CC[C@]12C [Dehydrotrametenolic acid (DTTA), dehydrotrametenolic acid] | 99 | 87 | 108 | – | – | 117 | 158 | 131 | significantly enhanced | 190 | 174 | 118 | significantly enhanced |
| C=C(CC[C@@H](C(=O)O)[C@H]1[C@H](O)C[C@@]2(C)C3=CC[C@H]4C(C)(C)[C@@H](O)CC[C@]4(C)C3=CC[C@]12C)C(C)C [Dehydrotumulosic acid (DTA), dehydrotumulosic acid] | 112 | 134 | 168 | significantly enhanced | enhanced more significantly | 122 | 105 | 139 | significantly enhanced | 159 | 156 | 127 | significantly enhanced |
| C=C(CC[C@@H](C(=O)O)[C@H]1CC[C@@]2(C)C3=C(CC[C@]12C)[C@@]1(C)CC[C@H](O)C(C)(C)[C@@H]1CC3)C(C)C [Eburicoic acid (EA), eburicoic acid] | 94 | 107 | 120 | significantly enhanced | – | 108 | 106 | 88 | significantly enhanced | 102 | 97 | 95 | – |
| C=C(CC[C@@H](C(=O)O)[C@H]1[C@H](O)C[C@@]2(C)C3=C(CC[C@]12C)[C@@]1(C)CC[C@H](OC(C)=O)C(C)(C)[C@@H]1CC3)C(C)C [Pachymic acid (PA), pachymic acid] | 98 | 132 | 140 | – | – | 117 | 116 | 106 | – | 172 | 235 | 211 | – |
| C=C(CC[C@@H](C(=O)O)[C@H]1[C@H](O)C[C@@]2(C)C3=CC[C@H]4C(C)(C)C(=O)CC[C@]4(C)C3=CC[C@]12C)C(C)C [Polyporenic acid C (PAC), polyporenic acid C] | 93 | 113 | 98 | significantly enhanced | – | 134 | 162 | 153 | significantly enhanced | 162 | 182 | 200 | significantly enhanced |
